Like-named read-outs stand apart in the source and are kept apart here.
Assay: Pharmacokinetics (plasma Cmax, AUC, Tmax, t1/2, trough concentrations)
Assay type: in vivo, human
Conditions: for Trough Plasma Concentration, Median / concentration at 7 day: Day 7; for concentration at 7 day / concentration at 28 day / concentration at 56 day / AUC(0-t) / Cmax: human, plasma, oral; for concentration at 56 day: Day 56
From the text: Pharmacokinetic endpoints of this study are PK parameters, including, of area under the plasma concentration versus time curve (AUC), maximum plasma concentration (Cmax), time to maximum concentration (Tmax), and half-life (t1/2) will be summarized descriptively for Randomization (baseline) and Study Weeks 1, 4, and 8
PK/PD Analysis Set includes all subjects in the SAF who have sufficient data available for the analysis of pharmacokinetic and pharmacodynamic measurements. In the analyses based on PKPD, subjects will be analyzed according to the actual treatment received.

[1] = 12.5 mg, 12.5 mg BID, read-out: Trough Plasma Concentration, Mean (SD)
[2] = 12.5 mg, 12.5 mg QD, read-out: Trough Plasma Concentration, Mean (SD)
[3] = 25 mg, 25 mg BID, read-out: Trough Plasma Concentration, Mean (SD)
[4] = 50 mg, 50 mg QD, read-out: Trough Plasma Concentration, Mean (SD)

SMILES: CC(=O)N[C@H]1CC[C@H](NC(=O)CN2CCN(c3nncc(-c4ccc(C)cc4)n3)CC2)CC1 [Compound A HBr]
- Trough Plasma Concentration, Median (12.5 mg BID): 26.1 ng/mL
- Trough Plasma Concentration, Median (12.5 mg QD): 5.52 ng/mL
- Trough Plasma Concentration, Median (25 mg BID): 52 ng/mL
- Trough Plasma Concentration, Median (50 mg QD): 12.1 ng/mL
- concentration at 7 day [1]: 52.3 ng/mL
- concentration at 7 day [2]: 11.6 ng/mL
- concentration at 28 day (12.5 mg, Day 28, 12.5 mg BID, read-out: Trough Plasma Concentration, Geo Mean): 10.7 ng/mL
- concentration at 28 day (12.5 mg, Day 28, 12.5 mg BID, read-out: Trough Plasma Concentration, Mean (SD)): 33.4 ng/mL
- concentration at 28 day (12.5 mg, Day 28, 12.5 mg BID, read-out: Trough Plasma Concentration, Median): 27.3 ng/mL
- concentration at 28 day (12.5 mg, Day 28, 12.5 mg QD, read-out: Trough Plasma Concentration, Geo Mean): 5.77 ng/mL
- concentration at 28 day (12.5 mg, Day 28, 12.5 mg QD, read-out: Trough Plasma Concentration, Mean (SD)): 7.91 ng/mL
- concentration at 28 day (12.5 mg, Day 28, 12.5 mg QD, read-out: Trough Plasma Concentration, Median): 4.1 ng/mL
- concentration at 56 day (12.5 mg, 12.5 mg BID, read-out: Trough Plasma Concentration, Geometric Mean): 18.5 ng/mL
- concentration at 56 day [1]: 40.4 ng/mL
- concentration at 56 day (12.5 mg, 12.5 mg BID, read-out: Trough Plasma Concentration, Median): 21.6 ng/mL
- concentration at 56 day (12.5 mg, 12.5 mg QD, read-out: Trough Plasma Concentration, Geometric Mean): 22.1 ng/mL
- concentration at 56 day [2]: 39.9 ng/mL
- concentration at 56 day (12.5 mg, 12.5 mg QD, read-out: Trough Plasma Concentration, Median): 7.6 ng/mL
- AUC(0-t) (12.5 mg, steady state Day 28, 12.5 mg BID, read-out: AUC0-24, Geo Mean): 940 ng·h/mL
- AUC(0-t) (12.5 mg, steady state Day 28, 12.5 mg BID, read-out: AUC0-24, Mean (SD)): 992 ng·h/mL
- AUC(0-t) (12.5 mg, steady state Day 28, 12.5 mg BID, read-out: AUC0-24, Median): 922 ng·h/mL
- Cmax (12.5 mg, steady state Day 28, 12.5 mg BID, read-out: Cmax, Median): 137 ng/mL
- AUC(0-t) (12.5 mg, steady state Day 28, 12.5 mg QD, read-out: AUC0-24, Geo Mean): 726 ng·h/mL
- AUC(0-t) (12.5 mg, steady state Day 28, 12.5 mg QD, read-out: AUC0-24, Mean (SD)): 1020 ng·h/mL
- AUC(0-t) (12.5 mg, steady state Day 28, 12.5 mg QD, read-out: AUC0-24, Median): 498 ng·h/mL
- Cmax (12.5 mg, steady state Day 28, 12.5 mg QD, read-out: Cmax, Geo Mean): 120 ng/mL
- Cmax (12.5 mg, steady state Day 28, 12.5 mg QD, read-out: Cmax, Mean (SD)): 153 ng/mL
- Cmax (12.5 mg, steady state Day 28, 12.5 mg QD, read-out: Cmax, Median): 94.9 ng/mL
- concentration at 7 day [3]: 94.2 ng/mL
- concentration at 28 day (25 mg, Day 28, 25 mg BID, read-out: Trough Plasma Concentration, Geo Mean): 62.1 ng/mL
- concentration at 28 day (25 mg, Day 28, 25 mg BID, read-out: Trough Plasma Concentration, Mean (SD)): 109 ng/mL
- concentration at 28 day (25 mg, Day 28, 25 mg BID, read-out: Trough Plasma Concentration, Median): 56.3 ng/mL
- concentration at 56 day (25 mg, 25 mg BID, read-out: Trough Plasma Concentration, Geometric Mean): 46 ng/mL
- concentration at 56 day [3]: 104 ng/mL
- concentration at 56 day (25 mg, 25 mg BID, read-out: Trough Plasma Concentration, Median): 32.3 ng/mL
- AUC(0-t) (25 mg, steady state Day 28, 25 mg BID, read-out: AUC0-24, Geo Mean): 1640 ng·h/mL
- AUC(0-t) (25 mg, steady state Day 28, 25 mg BID, read-out: AUC0-24, Mean (SD)): 1760 ng·h/mL
- AUC(0-t) (25 mg, steady state Day 28, 25 mg BID, read-out: AUC0-24, Median): 1670 ng·h/mL
- Cmax (25 mg, steady state Day 28, 25 mg BID, read-out: Cmax, Geo Mean): 325 ng/mL
- Cmax (25 mg, steady state Day 28, 25 mg BID, read-out: Cmax, Median): 335 ng/mL
- concentration at 7 day [4]: 93.1 ng/mL
- concentration at 28 day (50 mg, Day 28, 50 mg QD, read-out: Trough Plasma Concentration, Geo Mean): 46.8 ng/mL
- concentration at 28 day (50 mg, Day 28, 50 mg QD, read-out: Trough Plasma Concentration, Mean (SD)): 87.4 ng/mL
- concentration at 28 day (50 mg, Day 28, 50 mg QD, read-out: Trough Plasma Concentration, Median): 20.9 ng/mL
- concentration at 56 day (50 mg, 50 mg QD, read-out: Trough Plasma Concentration, Geometric Mean): 38.1 ng/mL
- concentration at 56 day [4]: 155 ng/mL
- concentration at 56 day (50 mg, 50 mg QD, read-out: Trough Plasma Concentration, Median): 18 ng/mL
- AUC(0-t) (50 mg, steady state Day 28, 50 mg QD, read-out: AUC0-24, Geo Mean): 3230 ng·h/mL
- AUC(0-t) (50 mg, steady state Day 28, 50 mg QD, read-out: AUC0-24, Mean (SD)): 3390 ng·h/mL
- AUC(0-t) (50 mg, steady state Day 28, 50 mg QD, read-out: AUC0-24, Median): 3320 ng·h/mL
- Cmax (50 mg, steady state Day 28, 50 mg QD, read-out: Cmax, Geo Mean): 477 ng/mL
- Cmax (50 mg, steady state Day 28, 50 mg QD, read-out: Cmax, Mean (SD)): 518 ng/mL
- Cmax (50 mg, steady state Day 28, 50 mg QD, read-out: Cmax, Median): 488 ng/mL
- AUC(0-t) (100 mg, 100 mg QD, Cohort 1, Day 28, read-out: Steady-state AUC0-24): 14900 ng·h/mL
- Cmax (100 mg, 100 mg QD, Cohort 1, Day 28, read-out: Steady-state Cmax): 1620 ng/mL
- AUC(0-t) (100 mg, 100 mg QD, Cohort 2, Day 28, read-out: Steady-state AUC0-24): 7480 ng·h/mL
- Cmax (100 mg, 100 mg QD, Cohort 2, Day 28, read-out: Steady-state Cmax): 1360 ng/mL
- AUC(0-t) (100 mg, 100 mg QD, Day 28, read-out: Steady-state AUC0-24, mean of Cohort 1 and Cohort 2): ~11200 ng·h/mL
- Cmax (100 mg, 100 mg QD, Day 28, read-out: Steady-state Cmax, mean of Cohort 1 and Cohort 2): ~1490 ng/mL
- concentration at 7 day (100 mg, 100 mg QD Part 1, read-out: Trough Plasma Concentration, Mean (SD)): 299 ng/mL
- concentration at 7 day (100 mg, 100 mg QD Part 1, read-out: Trough Plasma Concentration, Median): 28.2 ng/mL
